Source: ChEMBL document CHEMBL1149819, “Synthesis and in vivo anti-mutagenic activity of novel melatonin derivatives” (2008)

Tests used:
Conditions in all cases: route intragastric
Mus musculus [1] = assay: Antimutagenic activity in Albino mouse kidney assessed as DNA level per gram of tissue at 10 mg/kg administered intragastrically for 1 week; assay type: functional
Mus musculus [2] = assay: Antimutagenic activity against cyclophosphamide-induced mutagenicity in Albino mouse kidney assessed as RNA level per gram of tissue at 10 mg/kg administered intragastrically for 1 week; assay type: functional
Mus musculus [3] = assay: Antimutagenic activity against cyclophosphamide-induced mutagenicity in Albino mouse testes assessed as RNA level per gram of tissue at 10 mg/kg administered intragastrically for 1 week; assay type: functional, Testis
Mus musculus [4] = assay: Antimutagenic activity in mouse brain assessed as protein level per gram of tissue at 10 mg/kg administered intragastrically for 1 week; assay type: functional
Mus musculus [5] = assay: Antimutagenic activity in mouse liver assessed as protein level per gram of tissue at 10 mg/kg administered intragastrically for 1 week; assay type: functional
Mus musculus [6] = assay: Inhibition of cyclophosphamide-induced increase in micronuclei/polychromatic erythrocytes count in mouse at 10 mg/kg administered intragastrically for 1 week by micronuclei assay; assay type: functional; design: scale not given: the % may be the effect or the level left
Mus musculus [7] = assay: Antimutagenic activity in mouse brain assessed as peroxidase activity per microgram of tissue at 10 mg/kg administered intragastrically for 1 week; assay type: functional
Mus musculus [8] = assay: Antimutagenic activity against cyclophosphamide-induced mutagenicity in mouse liver assessed as protein level per gram of tissue at 10 mg/kg administered intragastrically for 1 week; assay type: functional
Mus musculus [9] = assay: Antimutagenic activity against cyclophosphamide-induced mutagenicity in Albino mouse brain assessed as DNA level per gram of tissue at 10 mg/kg administered intragastrically for 1 week; assay type: functional
Mus musculus [10] = assay: Antimutagenic activity in Albino mouse kidney assessed as RNA level per gram of tissue at 10 mg/kg administered intragastrically for 1 week; assay type: functional
Mus musculus [11] = assay: Antimutagenic activity against cyclophosphamide-induced mutagenicity in Albino mouse liver assessed as RNA level per gram of tissue at 10 mg/kg administered intragastrically for 1 week; assay type: functional
Mus musculus [12] = assay: Antimutagenic activity in mouse kidney assessed as protein level per gram of tissue at 10 mg/kg administered intragastrically for 1 week; assay type: functional
Mus musculus [13] = assay: Antimutagenic activity in Albino mouse liver assessed as RNA level per gram of tissue at 10 mg/kg administered intragastrically for 1 week; assay type: functional
Mus musculus [14] = assay: Antimutagenic activity against cyclophosphamide-induced mutagenicity in mouse testes assessed as protein level per gram of tissue at 10 mg/kg administered intragastrically for 1 week; assay type: functional, Testis
Mus musculus [15] = assay: Antimutagenic activity in Albino mouse testes assessed as RNA level per gram of tissue at 10 mg/kg administered intragastrically for 1 week; assay type: functional, Testis
Mus musculus [16] = assay: Antimutagenic against cyclophosphamide-induced mutagenicity in Albino mouse liver assessed as DNA level per gram of tissue at 10 mg/kg administered intragastrically for 1 week; assay type: functional
Mus musculus [17] = assay: Antimutagenic activity against cyclophosphamide-induced mutagenicity in Albino mouse kidney assessed as DNA level per gram of tissue at 10 mg/kg administered intragastrically for 1 week; assay type: functional
Mus musculus [18] = assay: Antimutagenic activity against cyclophosphamide-induced mutagenicity in mouse brain assessed as cholinesterase activity per microgram of tissue at 10 mg/kg administered intragastrically for 1 week; assay type: functional
Mus musculus [19] = assay: Antimutagenic activity against cyclophosphamide-induced mutagenicity in Albino mouse brain assessed as RNA level per gram of tissue at 10 mg/kg administered intragastrically for 1 week; assay type: functional
Mus musculus [20] = assay: Antimutagenic activity in Albino mouse brain assessed as DNA level per gram of tissue at 10 mg/kg administered intragastrically for 1 week; assay type: functional
Mus musculus [21] = assay: Antimutagenic activity in Albino mouse brain assessed as RNA level per gram of tissue at 10 mg/kg administered intragastrically for 1 week; assay type: functional
Mus musculus [22] = assay: Antimutagenic activity against cyclophosphamide-induced mutagenicity in mouse brain assessed as peroxidase activity per microgram of tissue at 10 mg/kg administered intragastrically for 1 week; assay type: functional
Mus musculus [23] = assay: Antimutagenic activity against cyclophosphamide-induced mutagenicity in mouse brain assessed as protein level per gram of tissue at 10 mg/kg administered intragastrically for 1 week; assay type: functional
Mus musculus [24] = assay: Antimutagenic activity in Albino mouse testes assessed as DNA level per gram of tissue at 10 mg/kg administered intragastrically for 1 week; assay type: functional, Testis
Mus musculus [25] = assay: Antimutagenic activity against cyclophosphamide-induced mutagenicity in Albino mouse testes assessed as DNA level per gram of tissue at 10 mg/kg administered intragastrically for 1 week; assay type: functional, Testis
Mus musculus [26] = assay: Antimutagenic activity against cyclophosphamide-induced mutagenicity in mouse kidney assessed as protein level per gram of tissue at 10 mg/kg administered intragastrically for 1 week; assay type: functional
Mus musculus [27] = assay: Antimutagenic activity in Albino mouse liver assessed as DNA level per gram of tissue at 10 mg/kg administered intragastrically for 1 week; assay type: functional
Mus musculus [28] = assay: Antimutagenic activity in mouse brain assessed as cholinesterase activity per microgram of tissue at 10 mg/kg administered intragastrically for 1 week; assay type: functional

**Q.** For `COc1ccc2[nH]cc(CCNC(C)=O)c2c1` [MELATONIN], which Activity (Mus musculus [1]) is on record?
**A.** The Activity was 0.25 mg.

**Q.** What about the Activity (Mus musculus [2]) of the same compound?
**A.** The Activity was 0.19 mg.

**Q.** And the Activity (Mus musculus [3])?
**A.** The Activity was 0.17 mg.

**Q.** What about the Activity (Mus musculus [4]) of the same compound?
**A.** The Activity was 2.48 g.

**Q.** And the Activity (Mus musculus [5])?
**A.** The Activity was 8.42 g.

**Q.** What about the Activity (Mus musculus [6]) of the same compound?
**A.** Its Activity is 41%.

**Q.** What about the Activity (Mus musculus [7]) of the same compound?
**A.** Its Activity is 3.38 U/min.

**Q.** And the Activity (Mus musculus [8])?
**A.** The Activity was 8.42 g.

**Q.** What about the Activity (Mus musculus [9]) of the same compound?
**A.** The Activity was 0.21 mg.

**Q.** What about the Activity (Mus musculus [10]) of the same compound?
**A.** Its Activity is 0.38 mg.

**Q.** And the Activity (Mus musculus [11])?
**A.** The Activity was 0.28 mg.

**Q.** What about the Activity (Mus musculus [12]) of the same compound?
**A.** The Activity was 6.39 g.

**Q.** And the Activity (Mus musculus [13])?
**A.** The Activity was 0.44 mg.

**Q.** And the Activity (Mus musculus [14])?
**A.** The Activity was 2.96 g.

**Q.** And the Activity (Mus musculus [15])?
**A.** Its Activity is 0.34 mg.

**Q.** And the Activity (Mus musculus [16])?
**A.** Its Activity is 0.23 mg.

**Q.** What about the Activity (Mus musculus [17]) of the same compound?
**A.** Its Activity is 0.24 mg.

**Q.** And the Activity (Mus musculus [18])?
**A.** Its Activity is 2.63 U.

**Q.** What about the Activity (Mus musculus [19]) of the same compound?
**A.** The Activity was 0.15 mg.

**Q.** And the Activity (Mus musculus [20])?
**A.** Its Activity is 0.32 mg.

**Q.** What about the Activity (Mus musculus [21]) of the same compound?
**A.** Its Activity is 0.18 mg.

**Q.** And the Activity (Mus musculus [22])?
**A.** The Activity was 2.54 U/min.

**Q.** And the Activity (Mus musculus [23])?
**A.** The Activity was 2.37 g.

**Q.** And the Activity (Mus musculus [24])?
**A.** The Activity was 0.26 mg.

**Q.** What about the Activity (Mus musculus [25]) of the same compound?
**A.** Its Activity is 0.23 mg.

**Q.** And the Activity (Mus musculus [26])?
**A.** Its Activity is 4.42 g.

**Q.** And the Activity (Mus musculus [27])?
**A.** Its Activity is 0.26 mg.

**Q.** What about the Activity (Mus musculus [28]) of the same compound?
**A.** The Activity was 3.13 U.
